From patent US5681863A, “Non-metabolizable clomiphene analogs for treatment of tamoxifen-resistant tumors” (Merrell Pharmaceuticals Inc., priority 1994, dated 1997)
pIC50: −log10 of the molar value. Where a name gives a salt, the structure may show the parent alone.

How the values were obtained:
MCF-7 = experiment: Antiproliferation test, MCF-7 human breast cancer cells (tamoxifen-sensitive); type: cell-based; conditions: for pIC50: Homo sapiens, MCF7, 168 h, read-out: TRIPHENYLETHYLENE IC50's AGAINST BREAST CANCER CELLS, IC50, Cell line MCF-7; for IC50 compared with tamoxifen, in words (both cell lines: MCF-7): statement in words
Experimental: (§1) Antiproliferation test Procedure:
(§2) The tests were conducted in 96-well microtiter plates. 5×10^3 cells were added to each well. Culture medium and drug solutions were added to wells with a Perkin Elmer Cetus PRO/PETTE. The culture medium was IMEM supplemented with 5% fetal bovine serum. Eight drug concentrations were tested, in duplicate, from 0.078 micromolar (μM) to 10 μM. After four days incubation the medium was replaced with fresh medium containing drug, and after a total of seven days, the cell monolayers were fixed with trichloracetic acid and stained with sulforhodamine dye. Absorbances (492 nm) of the extracted dye solutions were measured with a Titertek Multiscan plate reader.

LY2 = experiment: Antiproliferation test, LY-2 human breast cancer cells (MCF-7 variant resistant to tamoxifen); type: cell-based; conditions: for pIC50: Homo sapiens, MCF7, 168 h, read-out: TRIPHENYLETHYLENE IC50's AGAINST BREAST CANCER CELLS, IC50, Cell line LY2; for IC50 compared with tamoxifen, in words (both cell lines: LY-2): statement in words
Experimental: as §1, §2

CCN(CC)CCSc1ccc(C(=C(Cl)c2ccccc2)c2ccccc2)cc1 [MDL 10007F, 2-[p-(2-Chloro-1,2-diphenylvinyl)-phenylthio]triethylamine Dihydrogen Citrate]
pIC50 (MCF-7): 6.43 | IC50 compared with tamoxifen, in words (both cell lines: MCF-7) (MCF-7): lower than the IC50 values of tamoxifen | pIC50 (LY2): 6.00 | IC50 compared with tamoxifen, in words (both cell lines: LY-2) (LY2): lower than the IC50 values of tamoxifen

CCN(CC)CCCc1ccc(C(=C(Cl)c2ccccc2)c2ccccc2)cc1 [MDL 6866F, 1-[p-γ-diethylaminopropyl)phenyl]-1,2-diphenylchloroethylene dihydrogen citrate]
pIC50 (MCF-7): 6.49 | IC50 compared with tamoxifen, in words (both cell lines: MCF-7) (MCF-7): lower than the IC50 values of tamoxifen | pIC50 (LY2): 5.80 | IC50 compared with tamoxifen, in words (both cell lines: LY-2) (LY2): lower than the IC50 values of tamoxifen

CCN(CC)CCNc1ccc(C(=C(Cl)c2ccccc2)c2ccccc2)cc1 [MDL 10222F, 2-[p-(2-Chloro-1,2-diphenylvinyl)-anilino]triethylamine Dihydrogen Citrate]
pIC50 (MCF-7): 6.15 | IC50 compared with tamoxifen, in words (both cell lines: MCF-7) (MCF-7): lower than the IC50 values of tamoxifen | pIC50 (LY2): 5.42 | IC50 compared with tamoxifen, in words (both cell lines: LY-2) (LY2): lower than the IC50 values of tamoxifen
